Data from PMC4980623 (2016).

Assays:
[1] = test system: Hairpin DNA (DNA, hairpin) TTGGCCAATGTTTGGCCAA; assay: UV melting, 260 nm; conditions: 100 mM KCl; DNA:drug 1:10, 3 μM DNA; 20 mM cacodylic acid buffer, pH 7.3
[2] = test system: Hairpin DNA (5'-biotin, SPR) (DNA, hairpin) TTGGCCAATGTTTGGCCAA; assay: SPR
[3] = test system: c-kit 1 (DNA, G4) GGGAGGGCGCTGGGAGGAGGG; assay: FRET melting; conditions: various concentrations
[4] = test system: HTG22 (DNA, G4) AGGGTTAGGGTTAGGGTTAGGG; assay: UV-vis absorption titration; conditions: K+ (100 mM; K+ and Na+ swapped elsewhere in the source), 15 μM compound, 0-60 μM DNA, Tris-HCl
[5] = test system: HTG22 (5'-biotin, SPR) (DNA, G4) AGGGTTAGGGTTAGGGTTAGGG; assay: SPR kinetics, bivalent ligand model; conditions: K+ (100 mM; K+ and Na+ swapped elsewhere in the source), stronger of two sites
[6] = test system: HTG22 (FRET, FAM/TAMRA) (DNA, G4) AGGGTTAGGGTTAGGGTTAGGG; assay: FRET melting; conditions: 20 μM compound, DNA:drug 1:10
[7] = test system: c-myc (pu27) (DNA, G4) TGGGGAGGGTGGGGAGGGTGGGGAAGG; assay: FRET melting; conditions: K+ (100 mM; K+ and Na+ swapped elsewhere in the source); various concentrations
[8] = test system: HTG22 (DNA, G4) AGGGTTAGGGTTAGGGTTAGGG; assay: CD titration, 285 nm; conditions: K+ (100 mM; K+ and Na+ swapped elsewhere in the source); 5 μM DNA, Tris-HCl
[9] = K+ (100 mM; K+ and Na+ swapped elsewhere in the source)
[10] = Na+ (100 mM; K+ and Na+ swapped elsewhere in the source)

Row | Delta Tm [1] [°C] | Ka [2] [M⁻¹] | binding [3, 9] | binding [3, 10] | binding ([4]; 16.41% hypochromicity, 3 nm red shift) | Ka2 ([5]; Ka1 1.65 × 10^5) [M⁻¹] | Delta Tm [6, 9] [°C] | Delta Tm [6, 10] [°C] | binding [7] | binding [8] | binding ([4]; 16.89% hypochromicity, 1 nm red shift) | Ka2 ([5]; Ka1 2.82 × 10^5) [M⁻¹] | Structure (SMILES)
1 | 0.03 | 60000 | yes | no | yes | 169000 | 5.85 | 0.55 | no | yes |  |  | CN1CCN(Cc2nc3ccc4c(c3[nH]2)C(=O)c2ccccc2C4=O)CC1
2 | 0.10 | 40000 | yes | no |  |  | 8.04 | 1.00 | no | yes | yes | 384000 | C[N+]1(C)CCN(Cc2nc3ccc4c(c3[nH]2)C(=O)c2ccccc2C4=O)CC1
